The values below come from article PMC4865845, “A human genome-wide loss-of-function screen identifies effective chikungunya antiviral drugs” (Nature Communications, 2016).

The subject of the series is CHIKV. In kind it is cell-based, chikungunya virus.
In turn, “s9030 (CATCTGGAATTAACTGGAT; chemistry not given here)” gave a Score_si3 of 1.53.
In turn, “s9628 (GACCTAAAGAAGGAGATTA; chemistry not given here)” displayed a Score_si4 of 1.13.
Take “Hs_SIMP_2 (sense CTGGCTTGTTAGGATATATAA; chemistry not given here) [reference compound]”: the Score_si1 is recorded as -2.63.
In the case of “s35331 (GCAGGTAATCTCTATACTA; chemistry not given here)”, the Score_si2 is recorded as 1.81.
In turn, “Hs_CLPP_1 (sense CACGATGCAGTACATCCTCAA; chemistry not given here)” had a Score_si4 of 0.97.
For “s992 (GTGTTTTTCCGTAAGCATA; chemistry not given here) [reference compound]”, the Score_si3 is listed as -0.52.
As to “s31800 (CCACACTCATCTATCGCAA; chemistry not given here)”, the Score_si2 was 1.32.
Consider “Hs_CLK1_2 (sense AACGTGATGAACGCACCTTAA; chemistry not given here)”, for which the Score_si3 came to 1.36.
Turning to “s2529 (sense GCACCCGGTTTATCAGTAA; chemistry not given here)”, the Score_si4 amounted to 0.17.
For “Hs_RRBP1_4 (sense AAGAGATTGTAGAGAAGCTAA; chemistry not given here)”, the Score_si3 is listed as 1.79.
In turn, “Hs_EIF2B2_2 (CAACATCATTGAGGCGATTAA; chemistry not given here)” displayed a Score_si1 of 2.1.
Regarding “Hs_ZZZ3_2 (TAGGAATTTACCTGAATATAA; chemistry not given here) [reference compound]”, the Score_si2 is on record as -2.58.
The same measure, in the same setting: with “Hs_COPS2_1 (sense CACGATATACTGCACTAGATA; chemistry not given here)” the figure was 1.3.
“s35018 (GTGTGAAGGTAGACCGTGA; chemistry not given here)” returned a Score_si4 of 0.46.
The substance “s29269 (CAGTTTACCGAGGAAGAAA; chemistry not given here)” came in with a Score_si3 of 1.26.
As to “Hs_FLJ11752_1 (sense CTGGATATTACTAGAGTTGTA; chemistry not given here)”, the Score_si1 came out at 2.31.
Substance “Hs_UBE2C_9 (AGCCCTTGTATATTAAATAAA; chemistry not given here) [reference compound]” showed a Score_si2 of -0.83.
Substance “s20649 (sense GAATTACGGAGTCAACAAA; chemistry not given here) [reference compound]” gave a Score_si3 of -1.04.
As to “s8543 (CCTCAACAGTCACGTCAGA; chemistry not given here)”, the Score_si4 is recorded as -0.08.
On the same count and under the same terms, with “Hs_DLD_2 (CCCACTTATTCAAACAGAATA; chemistry not given here)” the figure was 0.87.
“Hs_XRN1_2 (AAGGAAATAGATAAACTGTAA; chemistry not given here)”: the Score_si1 turned out to be 1.94.
For “Hs_FLJ31164_4 (sense GAGCAACTTGCTGGATGTGAA; chemistry not given here)”, the Score_si2 worked out at 1.07.
“Hs_LTBP3_2 (CCGCTACTGCGTGGATGTGAA; chemistry not given here)” came in with a Score_si4 of 1.32.
Still for that read-out and setting: with “s33581 (GTACTTATATGAACGTATT; chemistry not given here)” the figure was 1.43.
Substance “s38779 (CCAAGATGACTGTGAATAA; chemistry not given here)” yielded a Score_si3 of 0.42.
In the case of “s28640 (CACTCACACCATCCTATGA; chemistry not given here)”, the Score_si1 turned out to be 1.62.
Still for that read-out and setting: with “Hs_DC-UbP_2 (CAGGCTTTGAGACTCATGTAA; chemistry not given here)” the figure was 1.59.
Consider “s24800 (sense CTATGGATGTTGATGTAGA; chemistry not given here)”, for which the Score_si2 is 1.78.
On to “Hs_IQGAP1_1 (sense CTGGGAGATAATGCCCACTTA; chemistry not given here)”, for which the Score_si2 is on record as 1.04.
On the same count and under the same terms, with “Hs_GNG13_2 (sense CACGTGATTACAGTCTGTAAA; chemistry not given here)” the figure was 1.42.
The same measure, in the same setting: with “s21424 (sense GCAGTGAAATATCCATGAT; chemistry not given here)” the figure was 0.74.
“s17301 (GCCTGGTATTTTGAAATCA; chemistry not given here)” had a Score_si3 of 0.7.
Regarding “Hs_RRBP1_1 (sense CACGTAGAGGATGGTGACATA; chemistry not given here)”, the Score_si2 was 1.82.
In turn, “Hs_DOK6_5 (CTGAGCAACATGAAAGATTAA; chemistry not given here) [reference compound]” registered a Score_si1 of -2.96.
“s12452 (sense GGACCAAGATGATCAGAAA; chemistry not given here)” registered a Score_si4 of 0.08.
In turn, “s10856 (sense AAGTTTACGTGAACAAATT; chemistry not given here)” showed a Score_si3 of -0.27.
Same read-out and setting: with “Hs_GFRA4_4 (sense CAGGAGGCATCTTGGTTGTAA; chemistry not given here)” the figure was 1.57.
Turning to “s21552 (sense TCGCTTCTGTATTTATGTT; chemistry not given here)”, the Score_si2 was found to be 1.41.
Same read-out and setting: with “Hs_GUCY1B3_1 (sense AAGGGTCAAATGATCTACTTA; chemistry not given here) [reference compound]” the figure was -0.88.
“Hs_DHX38_1 (CAGGATTTGGAAATAAATTTA; chemistry not given here)” displayed a Score_si1 of 2.48.
Consider “s18906 (sense GAAGGAATTTCATTTGACA; chemistry not given here)”, for which the Score_si3 was found to be 1.68.
The same measure, in the same setting: with “Hs_CLPP_3 (sense GCCCATCCACATGTACATCAA; chemistry not given here)” the figure was 1.41; with “s27237 (sense ACACTAAAGAATTCCGGAA; chemistry not given here) [reference compound]”, -0.27.
Regarding “Hs_SDFR1_8 (sense CAGGTATATACAGCATATAAA; chemistry not given here) [reference compound]”, the Score_si1 is on record as -2.41.
In the case of “s194476 (sense GCATGCTGCTGGCAGATCA; chemistry not given here)”, the Score_si2 is 1.47.
The substance “Hs_TGIF_6 (sense TCCAAGAACTATAAACTTAAA; chemistry not given here)” registered a Score_si3 of 1.
As to “Hs_ODZ3_1 (CCGGGCTGTGTCAAAGAATAA; chemistry not given here)”, the Score_si1 was determined as 1.47.
In turn, “s20508 (sense CACTTGAGGAGTTACTGAA; chemistry not given here) [reference compound]” had a Score_si4 of -0.76.
As to “s24923 (sense GGAAGTGAAGGAGTAAGTA; chemistry not given here) [reference compound]”, the Score_si4 is recorded as -0.27.
The same measure, in the same setting: with “s18706 (sense GAATCTGAACGAACGATAT; chemistry not given here) [reference compound]” the figure was -0.67.
“Hs_GRB10_2 (sense CTACCGTATAGTAACACTGTA; chemistry not given here)”: the Score_si1 amounted to 0.95.
The substance “Hs_ENTPD2_1 (CACGTCCATGTTTATCTACAA; chemistry not given here)” gave a Score_si2 of 1.25.
“s10395 (sense GGACGACTTCTTTAAGTCA; chemistry not given here)” came in with a Score_si3 of 1.58.
“Hs_NAG_1 (CAGAGGAAGATTGAAAGTGAA; chemistry not given here)” yielded a Score_si2 of 2.12.
Consider “Hs_LOC283377_7 (sense AAAGCTAGGCATACAGCCAAA; chemistry not given here)”, for which the Score_si3 came out at 0.76.
The substance “Hs_FASN_3 (CCGCTACATGGCCCAAGGGAA; chemistry not given here)” returned a Score_si1 of 2.39.
Substance “Hs_CALM2_5 (ACAAAGGAATTGGGAACTGTA; chemistry not given here)” yielded a Score_si4 of 0.05.
On the same count and under the same terms, with “s3625 (CAGTGAAGCTAGAATCTCA; chemistry not given here)” the figure was 1.54.
“Hs_ATF1_6 (AACCTAGTACATTACTAAATA; chemistry not given here) [reference compound]” showed a Score_si4 of -0.75.
Turning to “Hs_ITGB4BP_1 (sense CTGGATCTATCATTACTGCAA; chemistry not given here)”, the Score_si3 was found to be 1.14.
Take “Hs_POU3F2_2 (AAGATGAAAGTTACCACTGAA; chemistry not given here)”: the Score_si1 amounted to 2.65.
Substance “Hs_CNOT1_2 (sense CCAAGTTTGAATTTCAAGGAA; chemistry not given here)” returned a Score_si1 of 2.81.
Same read-out and setting: with “Hs_FBXO42_3 (CAGGCTGGGATCAAATCTCCA; chemistry not given here)” the figure was 2.82.
“Hs_CLTC_12 (sense CCGGAGAGATTTCTTCGTGAA; chemistry not given here)” registered a Score_si2 of 2.21.
Regarding “Hs_TUSC1_2 (ACCGATCATTCTATTATCATT; chemistry not given here) [reference compound]”, the Score_si2 is listed as -1.18.
Consider “s19040 (sense GTACATAACATCAATTTCA; chemistry not given here)”, for which the Score_si4 amounted to 0.32.
On the same count and under the same terms, with “s38698 (GGATTCTTGTTGGACTAAT; chemistry not given here)” the figure was -0.7.
As for “Hs_CRSP7_1 (sense TACGGTTAACTTGGACGGGCA; chemistry not given here) [reference compound]”, the Score_si2 was -1.45.
“s12099 (sense GCTTGTAGGTGATACACCT; chemistry not given here)”: the Score_si2 is on record as 1.09.
On to “s9031 (CGACGACAGCTACTGGTTT; chemistry not given here)”, for which the Score_si4 amounted to 0.9.
On the same count and under the same terms, with “s16459 (GATGGATCCATGTAATACA; chemistry not given here)” the figure was 0.81.
The substance “Hs_IRAK1_10 (sense AAGCAAGTCAGGTTTCATGTA; chemistry not given here)” returned a Score_si2 of 1.62.
Consider “Hs_KIAA1012_2 (sense CAGGGTTGCTATTTACTTAAA; chemistry not given here)”, for which the Score_si1 worked out at 2.22.
